Measurements: ChEMBL document CHEMBL5576067, “Synthesis and biological evaluation of novel 1,2,3,4-tetrahydro-β-carboline derivatives as potential antibacterial agents” (Bioorg Med Chem Lett, 2024)
≈ marks a conversion by molar mass, not a printed value. Calls of active or inactive are those of the source. The rule behind the calls is not given here.

Assays:
Staphylococcus aureus [1] = assay: Drug resistance, ratio of MIC for methicillin-resistant Staphylococcus aureus ATCC33591 after 16 passages to MIC for methicillin-resistant Staphylococcus aureus ATCC33591 after initial exposure; type: functional
Staphylococcus aureus [2] = assay: Bactericidal activity against Staphylococcus aureus ATCC25923 assessed as inhibition of bacterial growth incubated for 24 hrs by resazurin dye based analysis; type: functional
Staphylococcus aureus [3] = assay: Antibacterial activity against methicillin resistant Staphylococcus aureus ATCC33591 assessed as inhibition of bacterial growth incubated for 24 hrs by broth microdilution method; type: functional
Staphylococcus aureus [4] = assay: Drug resistance, ratio of MIC for methicillin-resistant Staphylococcus aureus ATCC33591 after 19 passages to MIC for methicillin-resistant Staphylococcus aureus ATCC33591 after initial exposure; type: functional
Staphylococcus aureus [5] = assay: Bactericidal activity against methicillin resistant Staphylococcus aureus ATCC33591 assessed as inhibition of bacterial growth incubated for 24 hrs by resazurin dye based analysis; type: functional
Staphylococcus aureus [6] = assay: Antibacterial activity against Staphylococcus aureus ATCC25923 assessed as inhibition of bacterial growth incubated for 24 hrs by broth microdilution method; type: functional
Staphylococcus aureus [7] = assay: Antibacterial activity against methicillin resistant Staphylococcus aureus ATCC33591 assessed as eradication of viable bacteria at >=4 times MIC measured within 24 hrs by time kill assay relative to control; type: functional
Staphylococcus aureus [8] = assay: Drug resistance, ratio of MIC for methicillin-resistant Staphylococcus aureus ATCC33591 after 18 passages to MIC for methicillin-resistant Staphylococcus aureus ATCC33591 after initial exposure; type: functional
Staphylococcus aureus [9] = assay: Antibacterial activity against methicillin resistant Staphylococcus aureus ATCC33591 infected in mouse model of abdominal infection assessed as reduction in mean bacterial load in blood at 5 mg/kg, ip treated for 24 hrs starting from 2 hrs post infection relative to control; type: functional; set-up: scale not given: the % may be the effect or the level left
Enterococcus faecium = assay: Antibacterial activity against vancomycin-resistant Enterococcus faecium ATCC 700221 assessed as inhibition of bacterial growth incubated for 24 hrs by broth microdilution method; type: functional
Staphylococcus aureus [10] = assay: Ratio of MBC to MIC for Staphylococcus aureus ATCC25923; type: functional
[11] = Cytotoxicity against human HepG2 cells assessed as cell viability at 32 to 64 ug/ml measured after 24 hrs by MTT assay; type: toxicity, cell-based; conditions: at 32 to 64 µg/mL, dose 32-64 µg/ml, read-out: Activity
Staphylococcus aureus [12] = assay: Antibacterial activity against methicillin resistant Staphylococcus aureus ATCC33591 assessed as eradication of viable bacteria at >8 times MIC measured after 24 hrs by time kill assay; type: functional, organism-based
Escherichia coli = assay: Antibacterial activity against Escherichia coli ATCC25922 assessed as inhibition of bacterial growth incubated for 24 hrs by broth microdilution method; type: functional
Staphylococcus aureus [13] = assay: Antibacterial activity against methicillin resistant Staphylococcus aureus ATCC33591 assessed as reduction in viable bacterial count at 2 times MIC measured within 24 hrs by time kill assay relative to control; type: functional
Staphylococcus aureus [14] = assay: Antibacterial activity against methicillin resistant Staphylococcus aureus ATCC33591 infected in mouse model of abdominal infection assessed as reduction in mean bacterial load in blood at 10 mg/kg, ip treated for 24 hrs starting from 2 hrs post infection relative to control; type: functional; set-up: scale not given: the % may be the effect or the level left
Staphylococcus aureus [15] = assay: Antibacterial activity against methicillin resistant Staphylococcus aureus ATCC33591 assessed as post antibiotic effect at 16 ug/ml measured after 2 hrs; type: functional; conditions: dose 16 µg/ml
Ralstonia solanacearum = assay: Antibacterial activity against Ralstonia solanacearum assessed as inhibition of bacterial growth incubated for 24 hrs by broth microdilution method; type: functional
Staphylococcus aureus [16] = assay: Antibacterial activity against methicillin resistant Staphylococcus aureus ATCC33591 assessed as post antibiotic effect at 8 ug/ml measured after 2 hrs; type: functional; conditions: dose 8 µg/ml
[17] = Antibacterial activity against Pseudomonas syringae pv. actinidiae assessed as inhibition of bacterial growth incubated for 24 hrs by broth microdilution method; type: functional
Staphylococcus aureus [18] = assay: Antibacterial activity against methicillin resistant Staphylococcus aureus ATCC33591 assessed as inhibition of bacterial growth at 1 times MIC incubated for 24 hrs by time kill assay; type: functional, organism-based
[19] = Cytotoxicity against human L02 cells assessed as cell viability at 32 to 64 ug/ml measured after 24 hrs by MTT assay; type: toxicity, cell-based; conditions: at 32 to 64 µg/mL, dose 32-64 µg/ml, read-out: Activity

## CO[C@H]1/C=C/O[C@@]2(C)Oc3c(C)c(O)c4c(O)c(c(/C=N/N5CCN(C)CC5)c(O)c4c3C2=O)NC(=O)/C(C)=C\C=C\[C@H](C)[C@H](O)[C@@H](C)[C@@H](O)[C@@H](C)[C@H](OC(C)=O)[C@@H]1C [RIFAMPIN]
Staphylococcus aureus [1]
  Ratio: 256
Staphylococcus aureus [2]
  MBC: 2 µg/mL (≈ 2.43 µM)
Staphylococcus aureus [3]
  MIC: 0.25 µg/mL (≈ 0.304 µM)
Staphylococcus aureus [4]
  Ratio: 1024
Staphylococcus aureus [5]
  MBC: 1 µg/mL (≈ 1.22 µM)
Staphylococcus aureus [6]
  MIC: 0.25 µg/mL (≈ 0.304 µM)

## O=C(Nc1ccc(C2NCCc3c2[nH]c2ccccc32)cc1)c1ccc(C(F)(F)F)cc1 (stereo unspecified)
Staphylococcus aureus [7]
  Activity: 94.3%
Staphylococcus aureus [8]
  Ratio: <4
Staphylococcus aureus [9]
  Activity: 9.8%
Enterococcus faecium
  MIC: 64 µg/mL (≈ 147 µM)
Staphylococcus aureus [10]
  Ratio: 1
Staphylococcus aureus [2]
  MBC: 4 µg/mL (≈ 9.19 µM)
[11]
  viability at 24 h: > 95%
Staphylococcus aureus [12]
  Activity: Active
Escherichia coli
  MIC: 4 µg/mL (≈ 9.19 µM)
Staphylococcus aureus [3]
  MIC: 4 µg/mL (≈ 9.19 µM)
Staphylococcus aureus [5]
  MBC: 4 µg/mL (≈ 9.19 µM)
Staphylococcus aureus [6]
  MIC: 4 µg/mL (≈ 9.19 µM)
Staphylococcus aureus [13]
  Activity: 87.7%
Staphylococcus aureus [14]
  Activity: 26%
Staphylococcus aureus [15]
  PAE: 2.63 h
Ralstonia solanacearum
  MIC: 4 µg/mL (≈ 9.19 µM)
Staphylococcus aureus [16]
  PAE: 1.78 h
[17]
  MIC: 16 µg/mL (≈ 36.7 µM)
Staphylococcus aureus [18]
  Activity: Active
[19]
  viability at 24 h: > 95%
